This is an account of results in patent publication US10292992B2, “Selective high-affinity polydentate ligands and methods of making such” (LAWRENCE LIVERMORE NATIONAL SECURITY, LLC, priority 2008, dated 2019).

The test system of one test is HLA-DR10. Nature of the test: NMR screening of ligands for binding to HLA-DR10. The arrangement: species or system human. The source says:
Determination of ligand binding and orientation can also be determined using a number of different methods. These include, but are not limited to Saturation Transfer Difference nuclear magnetic resonance (Mayer and Meyer (1999) Angew Chem Int Edit, 38:1784-1788) and Transfer NOE (trNOE) nuclear magnetic resonance (NMR) spectroscopy (Henrichsen et al. (1999) Angew Chem Int Edit., 38:98-102; Cosman et al. (2002) Chem Res Toxicol 15: 1218-1228). These methods can be used to screen the ligands in mixtures of several to several hundred per experiment to determine which ligands bind to the target molecule(s) e.g., under biologically relevant conditions and to determine which ligands bind to the same (or different) sites. Diffusion experiments (Lin et al. (1997) J. Organic Chem., 62: 8930-8931) can also be performed with those ligands that have been determined to bind in order to assess the relative binding affinity of each compound.
As a result of the computational docking, 30 compounds from both the Site 1 and Site 2 lists were experimentally screened by NMR.
A number of cell surface protein receptors have been identified that distinguish malignant cancer cells from their normal counterparts. […] This has led to the development of a variety of antibody-based, receptor-specific reagents conjugated to radioisotopes for use in radio-immunotherapy. […]

The next test has as its target HLA-DR10 protein. Nature of the test: Surface plasmon resonance binding of SHALs to isolated HLA-DR10 protein. The arrangement: species or system human. As to conditions: biotinylated versions of the SHALs immobilized on streptavidin chip; HLA-DR10 isolated from Raji cells. The source says: In certain embodiments, the binding affinities of the best SHALs can be estimated by mass spectrometry of the SHAL-target complexes, followed by a more accurate surface plasmon resonance (SPR) spectroscopy (Shuck (1997) Annu Rev Biophys Biomol Struct., 26: 541-566; Van Regenmortal (2001) Cell Mol Life Sci., 58: 794-800) measurement of the SHAL-target binding affinity using for example, the IASYS Plus or BiaCore instruments. In order to perform the SPR measurement, biotin can be added to the linker through a third functional group (as described above) and the SHAL can be bound to commercially available streptavidin coated chips. […] Experiments can be performed to test the selectivity of SHAL binding to targets in the presence of molecules related to the targets. Thus, for example, where the SHAL is directed to HLA-DR10, the SHAL can be evaluated for its ability to bind target molecules in the presence of Raji cell surface proteins extracted and separated by affinity chromatography. After treating the gel with the biotinylated SHAL and rinsing out excess unbound SHAL, the location of the bound SHAL can be detected by staining with Rhodamine tagged streptavidin.
Protein binding experiments were conducted using surface plasma resonance on a Biacore 3000 (Biacore, Piscataway, N.J.) at 25° C. A research grade streptavidin immobilized chip (SA chip, Biacore) was preconditioned and normalized according to the manufacturers instructions. Biotin labeled SHALs were dissolved in DMSO and diluted in 1.05×PBS (Biacore) to a final concentration of 1×PBS pH 7.4, 5% DMSO, to match the running buffer. These SHALs were injected over the flow cell to yield a surface density of 500-1000RU (response units). Biotin (50 μM E-Z Link Amine-PEO2-Biotin, Pierce) was injected over all cells for 1 minute at 20 μl/min as a block to reduce non-specific binding. One flow cell was used as a reference cell and a different SHAL was immobilized on each of the three other cells.
Experiments measuring the binding of HLA-DR10 to the SHALs were carried out at a flow rate of 30 μl/minute in PBS pH7.4 running buffer using all 4 flow cells. HLA-DR10 isolated from Raji cells (Rose et al. (1996) Cancer Immunol Immunother 43:26-30) was diluted in running buffer to a final concentration ranging from […] and a series of concentrations were run randomly in triplicate. Protein was injected for 3 minutes, allowed to dissociate for 5 minutes followed by regeneration of the surface using a 1 minute injection of 0.1% sodium dodecylsulfate (SDS) followed by a washing step with a 2 minute injection of running buffer. The data, which were double referenced by subtracting the blank reference surface and an average of 5 blank injections, were processed using the program SCRUBBER (University of Utah).
Using homology modeling, HLA-DR amino acid residues critical for Lym-1 binding were mapped on a 3-D model of the HLA-DR10ß subunit (Balhorn et al, (2007) Clin. Cancer Res., 13(Suppl. 18): S5621-S5628). Cavities within the Lym-1 epitopic surface of the protein were identified using SPHGEN (Kuntz et al. (1982) J. Mol Biol. 161: 269-288; Desjarlais et al. (1988) J. Med. Chem., 31: 722-729). After computational ligand docking for each of the cavities, a combination of NMR spectroscopy, surface plasmon resonance (BIAcore 3000; Biacore, Piscataway, N.J.) and competitive binding experiments were used to confirm ligand binding to HLA-DR10 protein. […]
(In general: In SPR one partner is held on a chip, and binding of the other changes the refractive index at the surface.)

The subject of test [1] is Raji cells expressing HLA-DR10. Nature of the test: Whole cell binding assay with 111In-labeled SHAL. The class given is cell-based, human. Here is the method:
Raji human Burkitt's lymphoma B-cells (American Type Culture Collection, Manassas, Va.) were maintained in RPMI-1640 media supplemented with 10% fetal bovine serum, 2mM L-glutamine, 1 mM sodium pyruvate, 1% of a solution of nonessential amino acids (GIBCO #11140-050), and 100 units/ml of Penicillin G, 100 μg/ml Streptomycin, and 0.25 μg/ml of Amphotericin B at 37° C. in a humidified 5% CO2 atmosphere. Jurkat's cells (American Type Culture Collection, Manassas, Va.), an acute leukemia T-cell line, were maintained in the same medium with the addition of 10 mM 4-(2-hydroxyethyl)-1-piperazineethanesulfonic acid (HEPES).
A series of experiments were conducted to quantify the uptake of the ^111In-labeled parent SHAL (DvLPBaPPP)2LLDo and its hexa-arginine analog (DvLPBaPPP)2LArg6AcLLDo by Raji cells, a cell line that has been previously shown to express the HLA-DR10 variant. The assays were conducted using aliquots containing 10^6 cells suspended in 150 μl of PBS with 5% bovine serum albumin (BSA). Aliquots of cells were treated with 0.1, 1, 5, 10 or 25 ng of ^111In-labeled (DvLPBaPPP)2LLDo or (DvLPBaPPP)2LArg6AcLLDo for one hour at both 4° C. and 22° C. The tubes containing the treated cells were centrifuged to separate the cell pellet from the supernatant and the two fractions were counted in a calibrated gamma well counter to determine the amount of bound and free SHAL. Half of the cell pellets were washed twice with PBS and incubated at 22° C. for 15 min before centrifuging them again. The pooled washes and washed cell pellets were subsequently counted in the gamma well counter to assess how much of the bound SHAL could be removed by washing.
In vitro cell binding experiments were conducted using ^111In-labeled parent SHAL and the hexa-arginine SHAL analog to quantify SHAL uptake and to evaluate the effect of adding the hexa-arginine tag. Uptake was assessed using Raji cells, a lymphoma cell line expressing HLA-DR10. Aliquots containing 10^6 cells were incubated with increasing amounts of SHAL containing ^111In labeled SHAL as a tracer, and cell-associated ^111In was measured before and after washing the cell pellets.

The next test relates to Raji cells. Nature of the test: 3-D confocal microscopy, Raji cells. The test is classed as cell-based, human. As to conditions: biotinylated reagent, 1 hr; 10 μM SHAL or 10 nM chLym-1; listed as parent SHAL. The procedure: SHAL binding and internalization by Raji and Jurkat's cells was assessed using the method described previously by O'Donnell et al. (O'Donnell et al. (1998) Prostate 37:91-97). Experiments were conducted comparing the binding of (DvLPBaPPP)2LLDo (the parent SHAL), its hexa-arginine analog (DvLPBaPPP)2LArg6AcLLDo, and chimeric Lym-1 (chLym-1) to Raji cells. All steps were performed at 20° C., unless indicated.
Four million Raji cells (>92% viability) in log phase growth were pelleted at 300×g, washed, and blocked for 30 min in 1 ml of 1% fraction V BSA in PBS, with constant rotation. Cells were then incubated 1 hr, at 1 million per 250 μl, with either 1% BSA in PBS or a biotinylated primary reagent: 10 nM chLym-1, 10 μM parent SHAL, or 10 μM hexa-arginine SHAL. After four washes (two in 1% BSA in PBS, two in PBS), 50 μl of the cell suspensions was applied to freshly poly-L-Lysine coated slides, and cells were allowed to adhere for 10 min in a humid chamber. Fixation and permeabilization were performed at −20° C. by using a 4 min exposure to methanol. Jurkat's cells were treated in the same manner as a control.
Slides were then washed twice in PBS and blocked in 10% fetaplex serum (Gemini Bioproducts, West Sacramento, Calif.) in PBS for 15 min and washed once in PBS. The detection reagent, Streptavidin AlexaFluor 610 (Invitrogen, Carlsbad, Calif.) was diluted 1/500 in diluent, 100 μl was applied; a parafilm cover slip was layered over the solution to prevent evaporation. The slides were incubated in a humid chamber for 30 min., washed 5 times for 5 min each in PBS, and rinsed briefly in double distilled H2O. After the slides dried, cover slips were mounted with ProlongGold with 4′,6-diamidino-2-phenylindole (DAPI, Invitrogen, Carlsbad, Calif.). The slides were viewed with an Olympus FV1000 laser scanning confocal microscope and data were collected as Z-scans at 160×, with focal sections being taken 1 μm apart through the cell.

Test [2] has as its system cultured cell lines containing HLA-DR10. As to conditions: shown previously (Balhorn et al. 2007); cited from earlier work.

Structures are written as SMILES. “Also recorded” adds a separate entry of the source.

With `Nc1ccc(Oc2ccc(C(=O)c3ccc(C(=O)c4ccc(Oc5ccc(N)cc5)cc4)cc3)cc2)cc1` [1,4-phenylenebis[[4-(4-aminophenoxy)phenyl]methanone]], in the test on HLA-DR10, the “binding to HLA-DR10 in subsequent screenings” value was “precipitated onto the target protein”.

With `CC(C)C(NS(=O)(=O)c1ccc(N=Nc2ccc(N(C)C)cc2)cc1)C(=O)NC(CCCCNC(=O)COCCOCCNC(=O)c1ccc(NC(=O)C(CCCNC(=N)N)NC(=O)c2ccccc2)cc1)C(=O)NCCOCCOCC(=O)NCCOCCOCC(=O)NCCOCCOCC(=O)NCCCCC(NC(=O)COCCOCCNC(=O)COCCOCCNC(=O)COCCOCCNC(=O)C(CCCCNC(=O)COCCOCCNC(=O)c1ccc(NC(=O)C(CCCNC(=N)N)NC(=O)c2ccccc2)cc1)NC(=O)C(NS(=O)(=O)c1ccc(N=Nc2ccc(N(C)C)cc2)cc1)C(C)C)C(=O)NC(CCCCNC(=O)CN1CCN(CC(=O)O)CCN(CC(=O)O)CCN(CC(=O)O)CC1)C(=O)O` (centres unmarked) [(DvLPBaPPP)2LLDo], the Kd at HLA-DR10 protein was roughly 21 nM. Moreover, the “pmoles SHAL Bound/10^6 cells unwashed” value in test [1] (5.3 pmoles of 111In-labeled SHAL, unwashed cell pellets) was 0.568 ± 0.091 pmoles SHAL Bound/10^6 cells. In addition, the “pmoles SHAL Bound/10^6 cells Washed” value in test [1] (5.3 pmoles of 111In-labeled SHAL, washed two times with BSA/buffer) is recorded as 0.263 ± 0.000 pmoles SHAL Bound/10^6 cells. In addition, the “proportion of SHAL retained by the cells after washing” value in test [1] (Raji cells, after washing) is reported as roughly 46%. In addition, the “Percent SHAL Retained” value in test [1] (after washing two times) was found to be 46%. The “SHAL binding, uptake and localization in Raji cells” value in the test on Raji cells was “intracellular binding; also recorded: Nuclear staining was not observed; also recorded: taken up and internalized”. Further, the “selective binding to HLA-DR10 expressing cell lines” value in test [2] is “bind selectively to HLA-DR10 expressing cell lines”.

One may read the Kd as the concentration at which binding is half-saturated.
